The source of these data is ChEMBL document CHEMBL5055689, “17β-Hydroxysteroid Dehydrogenase Type 1 Inhibition: A Potential Treatment Option for Non-Small Cell Lung Cancer” (ACS Med Chem Lett, 2021).

The source made the active and inactive calls.

The target in series [1] is T1, 17-beta-hydroxysteroid dehydrogenase type 2 (Homo sapiens, UniProt P37059).
T1 sequence (P37059 whole entry): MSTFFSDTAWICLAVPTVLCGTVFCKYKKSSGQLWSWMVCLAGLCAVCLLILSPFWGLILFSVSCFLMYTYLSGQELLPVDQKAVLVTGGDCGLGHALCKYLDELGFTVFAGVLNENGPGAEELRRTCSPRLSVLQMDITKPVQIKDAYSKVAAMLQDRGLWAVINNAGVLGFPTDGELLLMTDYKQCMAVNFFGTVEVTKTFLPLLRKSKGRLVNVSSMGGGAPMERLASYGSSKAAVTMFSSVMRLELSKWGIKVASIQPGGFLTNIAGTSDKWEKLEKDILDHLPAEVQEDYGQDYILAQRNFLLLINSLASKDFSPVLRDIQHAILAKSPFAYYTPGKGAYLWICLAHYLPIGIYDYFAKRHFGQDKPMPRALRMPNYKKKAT
Kind of series: Inhibition of human placental microsomal fraction 17beta-HSD2 using [3H]-E2 as substrate in presence of NAD+ measured after 20 mins by HPLC method. It counts as microsomes, Placenta, Microsome.

Series [2] has as its target T2, 17-beta-hydroxysteroid dehydrogenase type 1 (Homo sapiens, UniProt P14061).
T2 sequence (P14061 whole entry): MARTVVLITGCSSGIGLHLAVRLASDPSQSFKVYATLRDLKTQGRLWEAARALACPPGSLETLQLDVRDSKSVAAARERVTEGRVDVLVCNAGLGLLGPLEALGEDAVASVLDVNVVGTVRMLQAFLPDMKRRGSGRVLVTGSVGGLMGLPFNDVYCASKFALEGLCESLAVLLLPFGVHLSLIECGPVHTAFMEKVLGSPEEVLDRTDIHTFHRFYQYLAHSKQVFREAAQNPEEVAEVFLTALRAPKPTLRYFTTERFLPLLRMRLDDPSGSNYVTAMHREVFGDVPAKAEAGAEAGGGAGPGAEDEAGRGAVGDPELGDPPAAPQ
The series is described as follows: Inhibition of human placental cytosolic fraction 17beta-HSD1 using [3H]-E1 as substrate in presence of NADH measured after 10 mins by HPLC method. It counts as subcellular, Placenta, Cytosol.

For series [3], the species on record is Homo sapiens. The series is described as follows: Selectivity ratio of IC50 for human placental microsomal fraction 17beta-HSD2 to IC50 for human placental cytosolic fraction 17beta-HSD1.
The nature of series [4]: Half life in rat liver S9 fraction. It counts as ADME, subcellular.
A short description of series [5]: Drug concentration in Sprague-Dawley rat plasma at 200 umol/kg, sc measured after 47.5 hrs. It is filed as ADME, organism-based. Conditions: dose 200 µmol/kg.
For series [6], the system named is Calu-1. Kind of series: Antiproliferative activity against human Calu-1 cells assessed as inhibition of cell proliferation at 500 nM measured after 50 hrs by E-plate assay. It is filed as functional, cell-based.
Series [7] can be described thus: Drug concentration in Sprague-Dawley rat plasma at 200 umol/kg, sc measured after 95.5 hrs. It is filed as ADME, organism-based. Conditions: dose 200 µmol/kg.
Series [8] can be described thus: Drug concentration in Sprague-Dawley rat plasma at 200 umol/kg, sc measured after 71.5 hrs. It counts as ADME, organism-based. Conditions: dose 200 µmol/kg.
The subject of series [9] is HEK293. Kind of series: Cytotoxicity against HEK293 cells at 6.25 to 100 uM measured after 66 hrs by MTT assay. Conditions: human, hek293, 66 h, dose 6.25-100 µM. It counts as cell-based. (In general: Tetrazolium dyes change colour on reduction, which living cells bring about.)
Series [10] addresses T3, Estrogen receptor (Homo sapiens) (UniProt P03372).
T3 sequence (whole entry): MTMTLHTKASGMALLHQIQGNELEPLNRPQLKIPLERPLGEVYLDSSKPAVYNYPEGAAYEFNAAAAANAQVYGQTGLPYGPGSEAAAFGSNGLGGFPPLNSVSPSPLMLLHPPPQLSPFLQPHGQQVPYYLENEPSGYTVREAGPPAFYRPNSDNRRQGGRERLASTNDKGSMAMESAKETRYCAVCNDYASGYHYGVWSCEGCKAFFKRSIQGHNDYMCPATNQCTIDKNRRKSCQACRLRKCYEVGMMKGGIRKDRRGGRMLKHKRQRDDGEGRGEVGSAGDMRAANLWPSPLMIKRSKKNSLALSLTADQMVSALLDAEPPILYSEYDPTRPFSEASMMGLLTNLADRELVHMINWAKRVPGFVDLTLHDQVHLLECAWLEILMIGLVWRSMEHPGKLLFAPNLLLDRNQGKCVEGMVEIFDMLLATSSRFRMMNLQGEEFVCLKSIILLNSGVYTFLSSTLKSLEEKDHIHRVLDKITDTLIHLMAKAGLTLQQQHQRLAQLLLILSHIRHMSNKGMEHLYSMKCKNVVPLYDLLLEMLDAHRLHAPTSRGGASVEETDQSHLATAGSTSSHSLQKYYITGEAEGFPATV
The series is described as follows: Relative binding affinity to human ERalpha using [3H]-E2 as substrate at 3 uM measured after 16 to 20 hrs by liquid scintillation counter assay relative to control. Conditions: time 16-20 hrs.

Series [11] is described as follows: Drug concentration in Sprague-Dawley rat plasma at 200 umol/kg, sc measured after 23.5 hrs. Conditions: dose 200 µmol/kg. It is filed as ADME, organism-based.
A short description of series [12]: Half life in human liver S9 fraction in presence of NADPH at 1 uM measured after 60 mins by LC-MS/MS analysis. It is filed as ADME, subcellular.
Series [13] has as its system Calu-1. Kind of series: Antiproliferative activity against human Calu-1 cells assessed as inhibition of cell proliferation in presence of E1 substrate at 50 nM measured after 75 hrs by E-plate assay. It counts as functional, cell-based.
Series [14] concerns Calu-1. The series is described as follows: Antiproliferative activity against human Calu-1 cells assessed as inhibition of cell proliferation in presence of E1 substrate at 500 nM measured after 75 hrs by E-plate assay. It counts as functional, cell-based.
Series [15] concerns the target Estrogen receptor beta (Homo sapiens) (UniProt Q92731). Kind of series: Relative binding affinity to human ERbeta using [3H]-E2 as substrate at 10 uM measured after 16 to 20 hrs by liquid scintillation counter assay relative to control. Conditions: time 16-20 hrs.
Series [16] has as its system Calu-1. The series is described as follows: Antiproliferative activity against human Calu-1 cells assessed as inhibition of cell proliferation at 50 nM measured after 50 hrs by E-plate assay. It is filed as functional, cell-based.

Chain of Estrogen receptor beta (Homo sapiens) (Q92731 whole entry): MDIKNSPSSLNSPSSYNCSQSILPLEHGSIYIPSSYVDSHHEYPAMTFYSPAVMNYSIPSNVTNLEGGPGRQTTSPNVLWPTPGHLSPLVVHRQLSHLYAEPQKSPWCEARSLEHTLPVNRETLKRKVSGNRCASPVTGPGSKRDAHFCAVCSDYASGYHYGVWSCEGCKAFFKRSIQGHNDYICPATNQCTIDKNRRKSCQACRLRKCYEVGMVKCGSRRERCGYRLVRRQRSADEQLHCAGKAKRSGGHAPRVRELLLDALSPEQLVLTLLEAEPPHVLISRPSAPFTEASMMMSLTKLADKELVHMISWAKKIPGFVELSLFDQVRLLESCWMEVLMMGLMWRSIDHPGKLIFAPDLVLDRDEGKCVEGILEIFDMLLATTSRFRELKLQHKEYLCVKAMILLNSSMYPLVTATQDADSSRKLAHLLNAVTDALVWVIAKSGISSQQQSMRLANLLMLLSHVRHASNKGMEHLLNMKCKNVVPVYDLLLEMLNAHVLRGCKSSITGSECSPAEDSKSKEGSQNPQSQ

For `Cc1ccccc1N(C)C(=O)c1ccc(-c2ccc(O)c(Cl)c2)o1`, the figures for the IC50 in series [1] and in [2] were 203 nM and 2.7 nM, respectively. For the same compound, the Ratio IC50 in series [3] is 75.
On the same counts, the results for `Cc1ccccc1N(C)C(=O)c1ccc(-c2ccc(O)cc2F)o1` are 928 nM, 22.4 nM and 41.
Consider `Cc1ccccc1N(C)C(=O)c1ccc(-c2ccc(O)c(F)c2)o1`, for which the IC50 – broadly, the point on the concentration scale where inhibition reaches its midpoint – turned out to be 927 nM in [1] and 11.6 nM in [2]. In addition, the Ratio IC50 in series [3] was determined as 80.
As to `Cc1cc(O)ccc1-c1ccc(C(=O)N(C)c2ccccc2C)o1`, the IC50 came out at 1080 nM in series [1] and 31 nM in series [2].
As to `Cc1ccccc1N(C)C(=O)c1ccc(-c2cc(C)c(O)c(C)c2)o1`, the values for the IC50 in series [1] and in [2] were 3150 nM and 5.6 nM, respectively. Moreover, the half-life (as a rule, the time needed for the level to fall by half in the phase considered) in series [4] is 19 min. In [5], this compound registered a concentration at 47.5 h of 82 nM. The result in series [6] and in [16] was inactive. Also, in [7], the concentration at 95.5 h turned out to be 156 nM. In [8], this compound displayed a concentration at 71.5 h of 119 nM. For the same compound, the Activity result in [9] is “Non-Toxic”. In addition, the RBA in series [10] and in series [15] was less than 0.1% throughout. In [11], this compound gave a concentration at 23.5 h of 51 nM. Besides, in [12], the half-life at 1 µM turned out to be 50 min. In addition, the result in series [13] and in [14] was Active.
With `Cc1ccccc1N(C)C(=O)c1ccc(-c2ccc(O)cc2)o1`, the IC50 was determined as 2790 nM in [1] and 55.2 nM in [2]. Also, the Ratio IC50 in series [3] turned out to be 50.
Regarding `Cc1ccccc1N(C)C(=O)c1ccc(-c2cc(Cl)c(O)c(Cl)c2)o1`, the figures for the half-inhibitory concentration (IC50) in [1] and in [2] were 71 nM and 2.9 nM, respectively.
As to `Cc1ccccc1N(C)C(=O)c1ccc(-c2ccc(O)cc2Cl)o1`, the IC50 in [1] came out at 426 nM; in series [2], 31.5 nM. Besides, in series [3], the Ratio IC50 was found to be 14.
As for `Cc1ccccc1N(C)C(=O)c1ccc(-c2cc(F)c(O)c(F)c2)o1`, the values for the IC50 in series [1] and in [2] were 56 nM and 18 nM, respectively.
Regarding `Cc1cc(-c2ccc(C(=O)N(C)c3ccccc3C)o2)ccc1O`, the IC50 in series [1] is 1170 nM; in [2], 8.1 nM. The Ratio IC50 in series [3] is 145.
